Measured values published in ChEMBL document CHEMBL5550183, “Discovery of Novel 1-Phenylpiperidine Urea-Containing Derivatives Inhibiting β-Catenin/BCL9 Interaction and Exerting Antitumor Efficacy through the Activation of Antigen Presentation of cDC1 Cells” (J Med Chem, 2024).

How the values were obtained:
cells = conditions: Homo sapiens, HCT-116, 24 h
Description: Inhibition of Wnt/beta-catenin signaling pathway in human HCT-116 cells assessed as reduction in Axin2 expression incubated for 24 hrs by qPCR analysis

CT26 [1] = experiment: Antitumor activity against mouse CT26 cells implanted in BALB/c mouse assessed as tumor growth inhibition at 30 mg/kg, ip measured for 14 days; type: functional; conditions: CT26, 336 h, time 14 day, read-out: TGI
CT26 [2] = experiment: Antitumor activity against mouse CT26 cells implanted in BALB/c mouse assessed as tumor growth inhibition at 30 mg/kg, ip measured for 7 days; conditions: CT26, 168 h, read-out: TGI
CT26 [3] = experiment: Antitumor activity against mouse CT26 cells implanted in BALB/c mouse assessed as increase in CD103+ expression level at 30 mg/kg, ip measured for 7 days by flow cytometry analysis (reference value: 4.95%); type: functional; conditions: time 7 day
[4] = Antitumor activity against mouse PBMC cells implanted in BALB/c mouse assessed as increase in CD103 + XCR1 cDC1 expression at 30 mg/kg, ip measured for 7 days by qPCR analysis; type: functional; conditions: time 7 day
in vitro [5] = conditions: mouse, liver microsomes
Description: Metabolic stability in mouse liver microsome assessed as half life preincubated with compound for 10 mins followed by NADPH addition and measured upto 60 mins by LC-MS/MS analysis

in vitro [6] = conditions: mouse, liver microsomes; remark: listed apart in the source
Description: Metabolic stability in mouse liver microsome assessed as clearance preincubated with compound for 10 mins followed by NADPH addition and measured upto 60 mins by LC-MS/MS analysis

[7] = biological target: T1, beta-catenin-B-cell lymphoma 9 protein complex (Homo sapiens, UniProt P35222); experiment: Inhibition of full length his-tagged human beta-catenin (1 to 781 residues) expressed in Escherichia coli DE3/N-terminal FAM-tagged human BCL9 (350 to 375 residues) protein-protein interaction incubated for 2 hrs by fluorescence polarization assay
T1 sequence (P35222 whole entry): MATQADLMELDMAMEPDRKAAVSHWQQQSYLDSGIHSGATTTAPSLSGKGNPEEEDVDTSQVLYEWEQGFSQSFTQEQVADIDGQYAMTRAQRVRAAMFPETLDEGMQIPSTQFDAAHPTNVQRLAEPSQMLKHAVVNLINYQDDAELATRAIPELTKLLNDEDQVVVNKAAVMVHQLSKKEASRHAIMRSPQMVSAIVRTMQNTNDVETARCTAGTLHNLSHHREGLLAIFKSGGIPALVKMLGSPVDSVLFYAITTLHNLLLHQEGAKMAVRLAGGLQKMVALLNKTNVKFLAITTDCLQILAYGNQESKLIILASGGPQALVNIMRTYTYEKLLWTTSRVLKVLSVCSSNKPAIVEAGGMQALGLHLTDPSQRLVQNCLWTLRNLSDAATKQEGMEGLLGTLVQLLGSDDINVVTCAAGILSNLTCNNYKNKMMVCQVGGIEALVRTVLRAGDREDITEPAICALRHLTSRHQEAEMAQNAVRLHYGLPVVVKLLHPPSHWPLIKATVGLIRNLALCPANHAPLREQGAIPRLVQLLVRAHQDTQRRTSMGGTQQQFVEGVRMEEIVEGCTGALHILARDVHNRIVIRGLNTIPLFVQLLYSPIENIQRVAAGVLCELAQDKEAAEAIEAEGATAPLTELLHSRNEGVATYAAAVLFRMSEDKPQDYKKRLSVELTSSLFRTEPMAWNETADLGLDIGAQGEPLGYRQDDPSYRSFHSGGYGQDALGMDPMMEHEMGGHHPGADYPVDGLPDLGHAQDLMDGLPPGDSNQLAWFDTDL
T1 sequence (O00512 whole entry): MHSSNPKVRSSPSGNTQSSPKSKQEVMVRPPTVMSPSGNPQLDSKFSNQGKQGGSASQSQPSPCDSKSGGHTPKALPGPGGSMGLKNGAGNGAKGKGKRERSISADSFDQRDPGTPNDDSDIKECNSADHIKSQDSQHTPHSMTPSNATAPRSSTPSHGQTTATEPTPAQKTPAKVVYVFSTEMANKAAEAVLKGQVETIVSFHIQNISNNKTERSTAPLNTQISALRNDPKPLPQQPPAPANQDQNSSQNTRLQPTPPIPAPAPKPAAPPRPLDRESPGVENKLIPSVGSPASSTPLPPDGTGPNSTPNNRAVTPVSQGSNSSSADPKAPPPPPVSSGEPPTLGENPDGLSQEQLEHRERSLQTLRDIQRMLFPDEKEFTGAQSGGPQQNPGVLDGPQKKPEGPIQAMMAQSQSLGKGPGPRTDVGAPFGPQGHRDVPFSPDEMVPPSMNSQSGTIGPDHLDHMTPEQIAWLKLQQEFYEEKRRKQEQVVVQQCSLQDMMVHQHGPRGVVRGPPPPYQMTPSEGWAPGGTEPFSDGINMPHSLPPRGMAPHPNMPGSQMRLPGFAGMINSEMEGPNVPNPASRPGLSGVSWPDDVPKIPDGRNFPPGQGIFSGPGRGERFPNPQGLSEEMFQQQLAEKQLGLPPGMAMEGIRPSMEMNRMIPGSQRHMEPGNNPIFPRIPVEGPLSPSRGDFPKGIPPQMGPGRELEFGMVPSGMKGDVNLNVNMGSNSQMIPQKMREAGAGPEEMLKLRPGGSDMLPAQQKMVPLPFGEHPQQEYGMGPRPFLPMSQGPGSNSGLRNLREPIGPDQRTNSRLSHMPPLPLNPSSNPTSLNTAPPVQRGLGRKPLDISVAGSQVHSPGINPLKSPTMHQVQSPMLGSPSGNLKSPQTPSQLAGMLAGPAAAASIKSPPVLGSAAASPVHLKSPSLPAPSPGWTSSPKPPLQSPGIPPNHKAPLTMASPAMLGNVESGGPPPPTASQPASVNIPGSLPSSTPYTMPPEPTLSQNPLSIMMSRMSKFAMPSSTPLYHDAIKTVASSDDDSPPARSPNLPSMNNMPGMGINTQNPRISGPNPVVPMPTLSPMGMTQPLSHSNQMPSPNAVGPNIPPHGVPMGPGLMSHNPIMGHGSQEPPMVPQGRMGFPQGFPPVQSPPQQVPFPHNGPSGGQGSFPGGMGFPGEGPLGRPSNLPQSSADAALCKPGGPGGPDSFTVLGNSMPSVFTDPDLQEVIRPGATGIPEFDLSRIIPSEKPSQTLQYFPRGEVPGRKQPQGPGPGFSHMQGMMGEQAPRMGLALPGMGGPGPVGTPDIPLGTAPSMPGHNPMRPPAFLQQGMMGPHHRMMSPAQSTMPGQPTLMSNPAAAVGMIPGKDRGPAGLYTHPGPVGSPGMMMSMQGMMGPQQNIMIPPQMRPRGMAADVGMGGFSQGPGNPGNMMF

Catenin beta-1 = biological target: T2, Catenin beta-1 (Homo sapiens, UniProt P35222); experiment: Binding affinity to full length his-tagged human beta-catenin (1 to 781 residues) expressed in Escherichia coli DE3 assessed as dissociation constant by SPR analysis
T2 sequence (P35222 whole entry): T1 sequence (P35222 whole entry)

[8] = Tmax in ICR mouse at 1 mg/kg, iv measured upto 24 hrs by HPLC-MS/MS analysis; type: ADME, organism-based; conditions: in vivo
[9] = Half life in ICR mouse at 1 mg/kg, iv measured upto 24 hrs by HPLC-MS/MS analysis; type: ADME, organism-based; conditions: in vivo
[10] = AUC (0 to t) in ICR mouse at 1 mg/kg, iv measured upto 24 hrs by HPLC-MS/MS analysis; type: ADME, organism-based; conditions: in vivo
[11] = Cmax in ICR mouse at 1 mg/kg, iv measured upto 24 hrs by HPLC-MS/MS analysis; type: ADME, organism-based; conditions: in vivo
[12] = Clearance in ICR mouse at 1 mg/kg, iv measured upto 24 hrs by HPLC-MS/MS analysis; type: ADME, organism-based; conditions: in vivo
[13] = Toxicity in BALB/c mouse implanted with mouse CT26 cells assessed as body weight loss at 30 mg/kg, ip measured for 14 days; type: organism-based; conditions: in vivo, 336 h, time 14 day
[14] = biological target: T1, beta-catenin-B-cell lymphoma 9 protein complex; experiment: Inhibition of beta-catenin (unknown origin)/BCL9 (unknown origin) protein-protein interaction; type: protein-complex assay

| IC50 (cells) | IC50 [7] | Kd (Catenin beta-1) | Structure (SMILES) | other results |
| --- | --- | --- | --- | --- |
| 3.34 µM |  |  | O=C1[C@H](Cc2ccc(O)cc2)N2C(=O)CCN(C(=O)NCc3ccccc3)[C@H]2CN1Cc1cccc2ccccc12 |  |
| 3.34 µM |  |  | CC(C)(Oc1cccc(N2CCC[C@@H](C(=O)N(Cc3ccc(-c4cn[nH]c4)cc3)C3CC3)C2)c1)C(=O)N1CCNCC1 | inhibition in vivo at 30 mg/kg (CT26 [1]): 42.4%; inhibition in vivo at 30 mg/kg (CT26 [2]): 44.1%; Activity (CT26 [3]): 14.9%; Activity [4]: 5.17%; half-life at 1 h (in vitro [5]): 2.37 min; microsomal CLint at 1 h (in vitro [6]): 888 µL/min/mg |
| 4.35 µM |  |  | CC(C)(Oc1cccc(N2CCC[C@H](NC(=O)N(Cc3ccc(-c4cn[nH]c4)cc3)C3CC3)C2)c1)C(=O)N1CCNCC1 |  |
| 4.45 µM | 3.92 µM | 0.082 µM | CC(C)(Oc1cccc(N2CCC[C@@H](NC(=O)N(Cc3ccc(-c4cn[nH]c4)cc3)C3CC3)C2)c1)C(=O)NCC(=O)N1CCCC1CCN (stereo partly specified) |  |
| 2.54 µM | > 20 µM | 0.25 µM | CC(C)(Oc1cccc(N2CCC[C@@H](NC(=O)N(Cc3ccc(-c4cn[nH]c4)cc3)C3CC3)C2)c1)C(=O)NCCN |  |
| 8.24 µM |  |  | CC(C)(Oc1cccc(N2CCC[C@H](NC(=O)N(Cc3ccc(-c4cn[nH]c4)cc3)C3CC3)C2)c1)C(=O)N1CCOCC1 |  |
| 2.88 µM |  |  | CC(C)(Oc1cccc(N2CCC[C@@H](NC(=O)N(Cc3ccc(-c4cn[nH]c4)cc3)C3CC3)C2)c1)C(=O)NCCCN | Tmax [8]: 4.8 min; half-life [9]: 40.2 min; AUC(0-t) at 24 h [10]: 430 ng·h/mL; Cmax [11]: 910 ng/mL; clearance [12]: 40 mL/min/kg; inhibition in vivo at 30 mg/kg (CT26 [1]): 56.4%; Activity [13]: Non-Toxic; half-life at 1 h (in vitro [5]): 31.5 min; microsomal CLint at 1 h (in vitro [6]): 67 µL/min/mg |
| 7.5 µM | 1.83 µM | 0.25 µM | CC(C)(Oc1cccc(N2CCC[C@H](NC(=O)N(Cc3ccc(-c4cn[nH]c4)cc3)C3CC3)C2)c1)C(=O)NCCN |  |
| 5.3 µM | 2.06 µM | 0.64 µM | CC(C)(Oc1cccc(N2CCC[C@H](NC(=O)N(Cc3ccc(-c4cn[nH]c4)cc3)C3CC3)C2)c1)C(=O)NCC(=O)N1CCCC1CCN (stereo partly specified) |  |
| 4.67 µM |  |  | CC(C)(Oc1cccc(N2CCC[C@@H](NC(=O)N(Cc3ccc(-c4cn[nH]c4)cc3)C3CC3)C2)c1)C(=O)N1CCNCC1 |  |
| > 10 µM |  |  | CC(C)(Oc1cccc(N2CCC[C@H](NC(=O)N(Cc3ccc(-c4cn[nH]c4)cc3)C3CC3)C2)c1)C(=O)NCCCN |  |
| 5.41 µM |  |  | CC(C)(Oc1cccc(N2CCC[C@@H](NC(=O)N(Cc3ccc(-c4cn[nH]c4)cc3)C3CC3)C2)c1)C(=O)N1CCOCC1 |  |
|  |  |  | CCCC(=O)Oc1ccc([N+](=O)[O-])cc1 | Ki [14]: 2.1 µM |
